Experimental data as given in PMC5078040 (Oncotarget, 2016).
pIC50: −log10 of the molar value.

What was measured:
[1] = molecular target: T1, ABL1(F317I)-phosphorylated (Homo sapiens, UniProt P00519, F317I); assay: KinomeScan; type: binding; settings: 1uM
T1 construct: purchased DiscoveRx KINOMEscan

[2] = molecular target: T2, ABL1(Q252H)-nonphosphorylated (Homo sapiens, UniProt P00519, Q252H); assay: KinomeScan; type: binding; settings: 1uM
T2 construct: purchased DiscoveRx KINOMEscan

ACVR2A = molecular target: T3, ACVR2A (Homo sapiens, UniProt P27037); assay: KinomeScan; type: binding; settings: 1uM
T3 construct: purchased DiscoveRx KINOMEscan

ACVR2B = molecular target: T4, ACVR2B (Homo sapiens, UniProt Q13705); assay: KinomeScan; type: binding; settings: 1uM
T4 construct: purchased DiscoveRx KINOMEscan

ADCK3 = molecular target: T5, ADCK3 (Homo sapiens, UniProt Q8NI60); assay: KinomeScan; type: binding; settings: 1uM
T5 construct: purchased DiscoveRx KINOMEscan

ALK = molecular target: T6, ALK (Homo sapiens, UniProt Q9UM73); assay: KinomeScan; type: binding; settings: 1uM
T6 construct: purchased DiscoveRx KINOMEscan

CAMK4 = molecular target: T7, CAMK4 (Homo sapiens, UniProt Q16566); assay: KinomeScan; type: binding; settings: 1uM
T7 construct: purchased DiscoveRx KINOMEscan
T7 sequence (Q16566 whole entry): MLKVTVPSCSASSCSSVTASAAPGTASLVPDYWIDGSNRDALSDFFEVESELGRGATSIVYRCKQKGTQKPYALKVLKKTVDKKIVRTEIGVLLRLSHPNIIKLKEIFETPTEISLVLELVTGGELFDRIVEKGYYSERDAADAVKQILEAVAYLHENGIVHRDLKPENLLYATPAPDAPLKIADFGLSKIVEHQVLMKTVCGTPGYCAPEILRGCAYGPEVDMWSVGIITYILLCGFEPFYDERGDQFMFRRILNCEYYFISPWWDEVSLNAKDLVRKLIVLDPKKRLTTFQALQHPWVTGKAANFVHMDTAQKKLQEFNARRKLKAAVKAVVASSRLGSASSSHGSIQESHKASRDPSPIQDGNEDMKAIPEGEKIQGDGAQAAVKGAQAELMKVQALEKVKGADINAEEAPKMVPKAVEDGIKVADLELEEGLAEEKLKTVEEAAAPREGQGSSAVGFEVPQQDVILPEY

CASK = molecular target: T8, CASK (Homo sapiens, UniProt O14936); assay: KinomeScan; type: binding; settings: 1uM
T8 construct: purchased DiscoveRx KINOMEscan

CDC2L2 = molecular target: T9, CDC2L2 (Homo sapiens, UniProt Q9UQ88); assay: KinomeScan; type: binding; settings: 1uM
T9 construct: purchased DiscoveRx KINOMEscan

CDKL1 = molecular target: T10, CDKL1 (Homo sapiens, UniProt Q00532); assay: KinomeScan; type: binding; settings: 1uM
T10 construct: purchased DiscoveRx KINOMEscan

EGFR = molecular target: T11, EGFR (Homo sapiens, UniProt P00533); assay: KinomeScan; type: binding; settings: 1uM
T11 construct: purchased DiscoveRx KINOMEscan
T11 sequence (P00533 25-1210): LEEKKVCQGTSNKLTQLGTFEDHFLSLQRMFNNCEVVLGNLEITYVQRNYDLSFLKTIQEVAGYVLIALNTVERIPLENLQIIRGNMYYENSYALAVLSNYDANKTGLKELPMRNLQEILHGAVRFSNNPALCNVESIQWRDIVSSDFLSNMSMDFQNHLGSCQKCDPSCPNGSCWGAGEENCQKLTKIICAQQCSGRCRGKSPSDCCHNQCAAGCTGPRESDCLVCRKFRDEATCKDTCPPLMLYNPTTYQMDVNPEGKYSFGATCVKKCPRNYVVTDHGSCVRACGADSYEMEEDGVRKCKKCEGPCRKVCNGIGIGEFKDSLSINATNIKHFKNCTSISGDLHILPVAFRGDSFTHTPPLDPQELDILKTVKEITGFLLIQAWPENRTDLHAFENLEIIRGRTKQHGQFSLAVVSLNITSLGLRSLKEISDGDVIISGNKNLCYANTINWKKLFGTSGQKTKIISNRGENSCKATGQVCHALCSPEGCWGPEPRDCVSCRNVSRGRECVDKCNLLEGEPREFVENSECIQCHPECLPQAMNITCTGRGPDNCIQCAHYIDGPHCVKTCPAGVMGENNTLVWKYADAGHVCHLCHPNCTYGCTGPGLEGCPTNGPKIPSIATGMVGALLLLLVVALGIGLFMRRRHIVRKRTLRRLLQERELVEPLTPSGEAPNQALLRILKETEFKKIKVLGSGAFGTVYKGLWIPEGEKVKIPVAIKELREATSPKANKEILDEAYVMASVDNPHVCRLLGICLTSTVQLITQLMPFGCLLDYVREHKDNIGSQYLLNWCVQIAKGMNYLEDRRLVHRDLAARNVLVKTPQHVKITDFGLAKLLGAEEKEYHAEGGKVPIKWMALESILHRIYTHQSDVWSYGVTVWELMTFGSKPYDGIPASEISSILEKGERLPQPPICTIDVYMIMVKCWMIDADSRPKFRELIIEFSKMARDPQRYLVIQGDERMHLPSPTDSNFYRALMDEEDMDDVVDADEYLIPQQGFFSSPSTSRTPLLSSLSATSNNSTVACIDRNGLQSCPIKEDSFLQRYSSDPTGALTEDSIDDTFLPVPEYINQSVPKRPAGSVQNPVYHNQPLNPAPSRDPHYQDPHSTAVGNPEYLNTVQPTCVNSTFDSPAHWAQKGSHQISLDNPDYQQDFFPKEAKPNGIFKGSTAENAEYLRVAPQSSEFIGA

EPHB4 = molecular target: T12, EPHB4 (Homo sapiens, UniProt P54760); assay: KinomeScan; type: binding; settings: 1uM
T12 construct: purchased DiscoveRx KINOMEscan
T12 sequence (P54760 16-987): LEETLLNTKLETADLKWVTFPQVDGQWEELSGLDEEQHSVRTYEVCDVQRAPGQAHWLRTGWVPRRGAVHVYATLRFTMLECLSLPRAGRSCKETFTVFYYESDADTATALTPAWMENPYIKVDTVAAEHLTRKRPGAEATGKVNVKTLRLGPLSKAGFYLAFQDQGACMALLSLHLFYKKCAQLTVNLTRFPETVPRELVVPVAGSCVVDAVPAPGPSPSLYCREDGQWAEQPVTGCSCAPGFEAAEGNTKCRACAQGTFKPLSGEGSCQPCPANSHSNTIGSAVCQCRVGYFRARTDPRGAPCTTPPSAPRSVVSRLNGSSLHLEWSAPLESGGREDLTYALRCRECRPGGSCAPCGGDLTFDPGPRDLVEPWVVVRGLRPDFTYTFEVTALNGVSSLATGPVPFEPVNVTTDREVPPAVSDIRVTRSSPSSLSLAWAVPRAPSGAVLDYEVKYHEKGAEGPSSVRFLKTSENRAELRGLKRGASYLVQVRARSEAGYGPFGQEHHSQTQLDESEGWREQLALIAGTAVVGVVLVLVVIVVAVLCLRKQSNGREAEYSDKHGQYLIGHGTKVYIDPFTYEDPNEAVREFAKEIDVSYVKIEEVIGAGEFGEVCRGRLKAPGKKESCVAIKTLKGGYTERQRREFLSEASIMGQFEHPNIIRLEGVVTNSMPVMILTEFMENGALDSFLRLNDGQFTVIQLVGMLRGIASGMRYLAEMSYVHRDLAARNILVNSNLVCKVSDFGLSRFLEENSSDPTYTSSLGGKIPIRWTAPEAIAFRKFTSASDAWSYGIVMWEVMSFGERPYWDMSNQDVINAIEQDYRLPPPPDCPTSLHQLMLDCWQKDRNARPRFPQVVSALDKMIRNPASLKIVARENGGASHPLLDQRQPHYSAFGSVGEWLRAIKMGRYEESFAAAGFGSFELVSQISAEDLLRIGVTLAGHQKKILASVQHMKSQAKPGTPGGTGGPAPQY

ERK4 = molecular target: T13, ERK4 (Homo sapiens, UniProt P31152); assay: KinomeScan; type: binding; settings: 1uM
T13 construct: purchased DiscoveRx KINOMEscan

FGFR4 = molecular target: T14, FGFR4 (Homo sapiens, UniProt P22455); assay: KinomeScan; type: binding; settings: 1uM
T14 construct: purchased DiscoveRx KINOMEscan

FGR = molecular target: T15, FGR (Homo sapiens, UniProt P09769); assay: KinomeScan; type: binding; settings: 1uM
T15 construct: purchased DiscoveRx KINOMEscan

HPK1 = molecular target: T16, HPK1 (Homo sapiens, UniProt Q92918); assay: KinomeScan; type: binding; settings: 1uM
T16 construct: purchased DiscoveRx KINOMEscan

LATS2 = molecular target: T17, LATS2 (Homo sapiens, UniProt Q9NRM7); assay: KinomeScan; type: binding; settings: 1uM
T17 construct: purchased DiscoveRx KINOMEscan

LIMK1 = molecular target: T18, LIMK1 (Homo sapiens, UniProt P53667); assay: KinomeScan; type: binding; settings: 1uM
T18 construct: purchased DiscoveRx KINOMEscan

LOK = molecular target: T19, LOK (Homo sapiens, UniProt O94804); assay: KinomeScan; type: binding; settings: 1uM
T19 construct: purchased DiscoveRx KINOMEscan

MAK = molecular target: T20, MAK (Homo sapiens, UniProt P20794); assay: KinomeScan; type: binding; settings: 1uM
T20 construct: purchased DiscoveRx KINOMEscan

MAP3K2 = molecular target: T21, MAP3K2 (Homo sapiens, UniProt Q9Y2U5); assay: KinomeScan; type: binding; settings: 1uM
T21 construct: purchased DiscoveRx KINOMEscan

MAP3K4 = molecular target: T22, MAP3K4 (Homo sapiens, UniProt Q9Y6R4); assay: KinomeScan; type: binding; settings: 1uM
T22 construct: purchased DiscoveRx KINOMEscan

MERTK = molecular target: T23, MERTK (Homo sapiens, UniProt Q12866); assay: KinomeScan; type: binding; settings: 1uM
T23 construct: purchased DiscoveRx KINOMEscan

MKNK2 = molecular target: T24, MKNK2 (Homo sapiens, UniProt Q9HBH9); assay: KinomeScan; type: binding; settings: 1uM
T24 construct: purchased DiscoveRx KINOMEscan

MLK2 = molecular target: T25, MLK2 (Homo sapiens, UniProt Q02779); assay: KinomeScan; type: binding; settings: 1uM
T25 construct: purchased DiscoveRx KINOMEscan

MRCKA = molecular target: T26, MRCKA (Homo sapiens, UniProt Q5VT25); assay: KinomeScan; type: binding; settings: 1uM
T26 construct: purchased DiscoveRx KINOMEscan

MRCKB = molecular target: T27, MRCKB (Homo sapiens, UniProt Q9Y5S2); assay: KinomeScan; type: binding; settings: 1uM
T27 construct: purchased DiscoveRx KINOMEscan

MUSK = molecular target: T28, MUSK (Homo sapiens, UniProt O15146); assay: KinomeScan; type: binding; settings: 1uM
T28 construct: purchased DiscoveRx KINOMEscan

NDR1 = molecular target: T29, NDR1 (Homo sapiens, UniProt Q15208); assay: KinomeScan; type: binding; settings: 1uM
T29 construct: purchased DiscoveRx KINOMEscan
T29 sequence (Q15208 whole entry): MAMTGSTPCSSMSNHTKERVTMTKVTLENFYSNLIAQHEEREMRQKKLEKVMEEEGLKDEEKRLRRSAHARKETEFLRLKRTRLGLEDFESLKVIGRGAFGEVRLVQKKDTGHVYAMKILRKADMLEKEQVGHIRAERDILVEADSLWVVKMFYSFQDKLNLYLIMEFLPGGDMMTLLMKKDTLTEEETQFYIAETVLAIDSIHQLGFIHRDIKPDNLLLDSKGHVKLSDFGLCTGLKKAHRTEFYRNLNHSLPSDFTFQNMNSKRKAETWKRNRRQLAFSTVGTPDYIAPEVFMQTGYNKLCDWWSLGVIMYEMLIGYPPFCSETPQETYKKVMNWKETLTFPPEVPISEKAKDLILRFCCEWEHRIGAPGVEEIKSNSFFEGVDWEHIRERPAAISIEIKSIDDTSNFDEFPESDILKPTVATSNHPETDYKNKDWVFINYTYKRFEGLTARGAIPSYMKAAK

NDR2 = molecular target: T30, NDR2 (Homo sapiens, UniProt Q9Y2H1); assay: KinomeScan; type: binding; settings: 1uM
T30 construct: purchased DiscoveRx KINOMEscan

NEK11 = molecular target: T31, NEK11 (Homo sapiens, UniProt Q8NG66); assay: KinomeScan; type: binding; settings: 1uM
T31 construct: purchased DiscoveRx KINOMEscan

PFCDPK1(P.falciparum) = molecular target: T32, PFCDPK1(P.falciparum) (Plasmodium falciparum, UniProt P62344); assay: KinomeScan; type: binding; settings: 1uM
T32 construct: purchased DiscoveRx KINOMEscan

PFTAIRE2 = molecular target: T33, PFTAIRE2 (Homo sapiens, UniProt Q96Q40); assay: KinomeScan; type: binding; settings: 1uM
T33 construct: purchased DiscoveRx KINOMEscan

PIK3CA = molecular target: T34, PIK3CA (Homo sapiens, UniProt P42336); assay: KinomeScan; type: binding; settings: 1uM
T34 construct: purchased DiscoveRx KINOMEscan

PIK3CD = molecular target: T35, PIK3CD (Homo sapiens, UniProt O00329); assay: KinomeScan; type: binding; settings: 1uM
T35 construct: purchased DiscoveRx KINOMEscan
T35 sequence (O00329 whole entry): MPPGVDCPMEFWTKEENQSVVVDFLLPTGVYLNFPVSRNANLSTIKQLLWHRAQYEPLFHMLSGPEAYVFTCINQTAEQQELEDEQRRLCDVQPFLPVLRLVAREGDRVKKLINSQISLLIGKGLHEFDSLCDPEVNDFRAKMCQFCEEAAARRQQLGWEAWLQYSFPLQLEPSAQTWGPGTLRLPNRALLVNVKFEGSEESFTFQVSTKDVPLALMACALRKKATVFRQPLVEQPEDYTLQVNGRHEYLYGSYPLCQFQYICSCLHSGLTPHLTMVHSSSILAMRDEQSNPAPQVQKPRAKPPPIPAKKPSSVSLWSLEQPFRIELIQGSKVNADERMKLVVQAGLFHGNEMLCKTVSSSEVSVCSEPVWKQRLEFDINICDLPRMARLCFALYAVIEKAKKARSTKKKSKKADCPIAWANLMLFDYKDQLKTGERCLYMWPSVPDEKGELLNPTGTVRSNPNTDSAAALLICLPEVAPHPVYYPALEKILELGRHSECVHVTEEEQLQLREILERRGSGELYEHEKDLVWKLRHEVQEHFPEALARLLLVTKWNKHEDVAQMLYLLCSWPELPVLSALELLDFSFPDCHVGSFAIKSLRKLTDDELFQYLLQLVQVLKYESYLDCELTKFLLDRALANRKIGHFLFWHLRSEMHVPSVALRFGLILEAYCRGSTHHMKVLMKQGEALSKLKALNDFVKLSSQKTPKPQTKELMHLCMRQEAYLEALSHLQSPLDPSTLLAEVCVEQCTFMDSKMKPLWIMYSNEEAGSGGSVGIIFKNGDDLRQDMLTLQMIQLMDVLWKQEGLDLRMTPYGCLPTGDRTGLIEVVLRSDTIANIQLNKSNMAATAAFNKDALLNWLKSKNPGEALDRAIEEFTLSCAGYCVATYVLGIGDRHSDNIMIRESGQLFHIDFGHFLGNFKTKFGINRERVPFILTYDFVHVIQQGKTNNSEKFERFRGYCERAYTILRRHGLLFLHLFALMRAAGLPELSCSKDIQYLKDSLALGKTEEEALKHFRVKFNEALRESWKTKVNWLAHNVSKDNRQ

PIM1 = molecular target: T36, PIM1 (Homo sapiens, UniProt P11309); assay: KinomeScan; type: binding; settings: 1uM
T36 construct: purchased DiscoveRx KINOMEscan

RAF1 = molecular target: T37, RAF1 (Homo sapiens, UniProt P04049); assay: KinomeScan; type: binding; settings: 1uM
T37 construct: purchased DiscoveRx KINOMEscan

RIPK1 = molecular target: T38, RIPK1 (Homo sapiens, UniProt Q13546); assay: KinomeScan; type: binding; settings: 1uM
T38 construct: purchased DiscoveRx KINOMEscan
T38 sequence (Q13546 whole entry): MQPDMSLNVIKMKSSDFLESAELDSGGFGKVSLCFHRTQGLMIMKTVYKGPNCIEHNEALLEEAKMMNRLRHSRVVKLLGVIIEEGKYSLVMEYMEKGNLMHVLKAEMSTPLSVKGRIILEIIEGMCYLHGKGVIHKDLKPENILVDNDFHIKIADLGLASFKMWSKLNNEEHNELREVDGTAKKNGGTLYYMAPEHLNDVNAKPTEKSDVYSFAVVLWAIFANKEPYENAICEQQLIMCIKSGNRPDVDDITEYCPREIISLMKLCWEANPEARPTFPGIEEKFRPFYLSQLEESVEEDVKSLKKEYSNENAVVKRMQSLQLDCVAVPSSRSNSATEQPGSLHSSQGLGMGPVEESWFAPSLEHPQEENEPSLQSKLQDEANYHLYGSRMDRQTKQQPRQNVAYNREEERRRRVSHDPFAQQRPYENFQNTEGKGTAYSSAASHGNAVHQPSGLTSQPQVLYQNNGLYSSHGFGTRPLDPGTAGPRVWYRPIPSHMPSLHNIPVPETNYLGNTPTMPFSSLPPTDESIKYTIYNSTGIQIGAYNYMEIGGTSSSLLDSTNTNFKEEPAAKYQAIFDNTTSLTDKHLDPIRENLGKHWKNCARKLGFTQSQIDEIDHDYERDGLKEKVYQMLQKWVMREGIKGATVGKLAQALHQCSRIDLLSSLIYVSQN

[3] = molecular target: T39, RSK4(Kin.Dom.2-C-terminal) (Homo sapiens, UniProt Q9UK32); assay: KinomeScan; type: binding; settings: 1uM
T39 construct: RSK4(Kin.Dom.2-C-terminal); purchased DiscoveRx KINOMEscan

SIK = molecular target: T40, SIK (Homo sapiens, UniProt P57059); assay: KinomeScan; type: binding; settings: 1uM
T40 construct: purchased DiscoveRx KINOMEscan

TRKA = molecular target: T41, TRKA (Homo sapiens, UniProt P04629); assay: KinomeScan; type: binding; settings: 1uM
T41 construct: purchased DiscoveRx KINOMEscan

VEGFR2 = molecular target: T42, VEGFR2 (Homo sapiens, UniProt P35968); assay: KinomeScan; type: binding; settings: 1uM
T42 construct: purchased DiscoveRx KINOMEscan

YANK2 = molecular target: T43, YANK2 (Homo sapiens, UniProt Q9NY57); assay: KinomeScan; type: binding; settings: 1uM
T43 construct: purchased DiscoveRx KINOMEscan

PI4KB = molecular target: T44, PI4KB (Homo sapiens, UniProt Q9UBF8); assay: ADP-glo biochemical assay
T44 construct: purchased Invitrogen
Experimental: The reaction in each tube was started immediately by adding ATP and kept going for an hour under 37°C. After the tube cooled for 5 minutes at room temperature, 5 μL solvent reactions were carried out in a 384-well plate. Then 5 μL of ADP-Glo™ reagent was added into each well to stop the reaction and consume the remaining ADP within 40 minutes. At the end, 10 μL of kinase detection reagent was added into the well and incubated for 30 minutes to produce a luminescence signal. Luminescence signal was measured with an automated plate reader (Perkin-Elmer Envision) and each measurement was performed in triplicate.

Compound: Cc1nc(NC(=O)[C@@H](N)C(C)C)sc1-c1cnc(Cl)c(NS(=O)(=O)c2ccccc2)c1 [PI3KD-IN-015]
- KinomeScan ABL1(F317I)-phosphorylated [1]: 89
- KinomeScan ABL1(Q252H)-nonphosphorylated [2]: 100
- KinomeScan ACVR2A (ACVR2A): 100
- KinomeScan ACVR2B (ACVR2B): 100
- KinomeScan ADCK3 (ADCK3): 100
- KinomeScan ALK (ALK): 100
- KinomeScan CAMK4 (CAMK4): 89
- KinomeScan CASK (CASK): 95
- KinomeScan CDC2L2 (CDC2L2): 100
- KinomeScan CDKL1 (CDKL1): 100
- KinomeScan EGFR (EGFR): 100
- KinomeScan EPHB4 (EPHB4): 100
- KinomeScan ERK4 (ERK4): 100
- KinomeScan FGFR4 (FGFR4): 93
- KinomeScan FGR (FGR): 100
- KinomeScan HPK1 (HPK1): 87
- KinomeScan LATS2 (LATS2): 100
- KinomeScan LIMK1 (LIMK1): 100
- KinomeScan LOK (LOK): 99
- KinomeScan MAK (MAK): 72
- KinomeScan MAP3K2 (MAP3K2): 100
- KinomeScan MAP3K4 (MAP3K4): 100
- KinomeScan MERTK (MERTK): 96
- KinomeScan MKNK2 (MKNK2): 98
- KinomeScan MLK2 (MLK2): 89
- KinomeScan MRCKA (MRCKA): 94
- KinomeScan MRCKB (MRCKB): 91
- KinomeScan MUSK (MUSK): 96
- KinomeScan NDR1 (NDR1): 100
- KinomeScan NDR2 (NDR2): 100
- KinomeScan NEK11 (NEK11): 86
- KinomeScan PFCDPK1(P.falciparum) (PFCDPK1(P.falciparum)): 100
- KinomeScan PFTAIRE2 (PFTAIRE2): 100
- KinomeScan PIK3CA (PIK3CA): 7.2
- KinomeScan PIK3CD (PIK3CD): 0
- KinomeScan PIM1 (PIM1): 100
- KinomeScan RAF1 (RAF1): 100
- KinomeScan RIPK1 (RIPK1): 100
- KinomeScan RSK4(Kin.Dom.2-C-terminal) [3]: 99
- KinomeScan SIK (SIK): 99
- KinomeScan TRKA (TRKA): 96
- KinomeScan VEGFR2 (VEGFR2): 99
- KinomeScan YANK2 (YANK2): 99
- pIC50 (PI4KB): 6.76
